We go through one molecule from patent US20130131062A1, “PYRIDAZINONES AND FURAN-CONTAINING COMPOUNDS” (priority 2006, published 2013).

The subject of experiment [1] is 15 non small cell lung cancer lines representing various EGFR and KRAS mutations. In words: Dose response studies against 15 NSCLC lines (alamar blue). Format: cell-based, human. The settings on record: 12 point doubling dilution 10 uM to 5 nM, alamar blue. How it is done:
Dose response studies against 34 compounds from the pyridazinone and phenylfuran-carboxamide class were conducted. […] In addition, Tarceva was included in these dose response studies.
The dose response studies were done with the following standard procedure. First, the cells were counted and dispensed at 250 cells/well into 384-well microplates with compound. The cells were incubated for 48 hours at 37 C to complete treatment, and then alamar blue was added for an additional 48 hours. Finally, alamar blue reduction was measured and the data was loaded into ORIS, our data screening acquisition platform.

For another experiment, the system named is H1734. As to the kind of experiment: Non Small Cell Lung Cancer Proliferation Assay (Alamar Blue), dose response. The settings on record: Homo sapiens, NCI-H1734, read-out: H1734 Dose Response (uM). On the technique in general: Resazurin is reduced to fluorescent resorufin, in cell work by metabolically active cells.

Read-outs that look alike come from different tables or passages of the source.

Description for H1734: To perform the assay, the Non Small Cell Lung Cancer lines are diluted in media and plated into 384 well microplates at a final density of 250 cells in 45 μL.
After addition, the cells are placed in cell culture incubator at 37° C. for 48 hours for complete treatment.
After drug treatment, cytotoxicity is measured by Alamar Blue reduction.
The cells are incubated for 48 hours at 37° C. to complete the Alamar Blue reduction.
The final step in the assay is to measure the amount of Alamar Blue reduction. […] The Alamar Blue fluorescence is measured at an excitation of 530 nm and emission of 590 nm.
This assay was performed on a fully automated linear track robotic platform (CRS F3 Robot System, Thermo Electron Corp., Ontario, Canada) utilizing several integrated peripherals for plate handling, liquid dispensing, and readout detection. […] The microplates are then placed at 37° C. for 48 hours to complete treatment of cells with compounds. Next, 5 ul of alamar blue was added using a liquid dispenser (FlexDrop Precision Dispenser, Perkin Elmer, Mass., USA) and incubated for 48 hours at 37° C. The alamar blue prompt fluorescence was measured on Victor V (Victor^3 V, Perkin Elmer, Mass., USA) and output data files were loaded into ORIS (Oncology Research Informatics System, MSKCC, NY, USA), a screening data acquisition and analysis platform. […]

For `Cc1ccccc1-n1ncc(Cl)c(Cl)c1=O` [compound 257017], the IC50 was determined as 1140 nM in experiment [1] (HPL1D (SV40-immortalized human lung epithelian cells, EGFR WT, KRAS WT), read-out: IC50 HPL1D); 1700 nM in experiment [1] (Homo sapiens, NCI-H358, H358 (EGFR WT, KRAS G12C), read-out: IC50 H358); 3680 nM in experiment [1] (Homo sapiens, NCI-H460, H460 (EGFR WT, KRAS Q61H), read-out: IC50 H460); 470 nM in experiment [1] (Homo sapiens, NCI-H820, H820 (EGFR T790M/DelE746-A750, KRAS WT), read-out: IC50 H820); 1670 nM in experiment [1] (Homo sapiens, NCI-H1650, H1650 (EGFR DelE746-A750, KRAS WT), read-out: IC50 H1650); 3200 nM in experiment [1] (Homo sapiens, NCI-H1734, H1734 (EGFR WT, KRAS G13C), read-out: IC50 H1734). The IC50 worked out at 760 nM in experiment [1] (Homo sapiens, NCI-H1975, H1975 (KRAS WT), read-out: IC50 H1975); 1380 nM in experiment [1] (Homo sapiens, NCI-H2030, H2030 (EGFR WT, KRAS G12C), read-out: IC50 H2030); 2160 nM in experiment [1] (Homo sapiens, NCI-H2122, H2122 (EGFR WT, KRAS G12C), read-out: IC50 H2122); 1050 nM in experiment [1] (Homo sapiens, NCI-H2444, H2444 (EGFR WT, KRAS G12V), read-out: IC50 H2444); 3160 nM in experiment [1] (Homo sapiens, NCI-H3255, H3255 (EGFR L858R, KRAS WT), read-out: IC50 H3255); 2130 nM in experiment [1] (Homo sapiens, A549 (EGFR WT, KRAS G12S), read-out: IC50 A549). Moreover, the IC50 in experiment [1] (Homo sapiens, H23 (EGFR WT, KRAS G12C), read-out: IC50 H23) was 310 nM; in experiment [1] (Homo sapiens, H1118 (EGFR L858R, KRAS WT), read-out: IC50 H1118), 830 nM; in experiment [1] (Homo sapiens, PC9 (EGFR DclE746-A750, KRAS WT), read-out: IC50 PC9), 2000 nM; in the experiment with H1734, 3.2 µM.
